In US11638713B2, “Patentiflorin A analogs as antiviral agents” (priority 2019, dated 2023):
Like-named read-outs stand apart in the source and are kept apart here.

Assays:
EBOV (Ebola virus) = test: microbe, parasite or virus in culture; type: cell-based; conditions: Zaire ebolavirus; for EC50: A549, read-out: EC50 against EBOV
[1] = tested on: VSV (vesicular stomatitis virus); test: microbe, parasite or virus in culture; type: cell-based; conditions: for EC50: A549, read-out: EC50 against VSV
HIV = test: microbe, parasite or virus in culture; type: cell-based
SARS-CoV-2 = test: microbe, parasite or virus in culture; type: cell-based; conditions: Severe acute respiratory syndrome coronavirus 2, HepG2, read-out: EC50 against SARS-CoV-2
in vitro = conditions: human
H5N1 virus = test: microbe, parasite or virus in culture; type: cell-based, H5N1 influenza virus; conditions: for EC50: H5N1, A549, read-out: EC50 against H5N1 virus
A549 cells [2] = test: cells; conditions: Homo sapiens, A549, read-out: % Inhibition against A549 cells
SF162 = test: HIV-1 clinical strain PBMC assay (p24 ELISA), SF162; type: cell-based; conditions: Human immunodeficiency virus 1, PBMC, read-out: IC50 against SF162
[3] = Cytotoxicity against PBMC; type: cell-based; conditions: human
Bal = test: HIV-1 clinical strain PBMC assay (p24 ELISA), Bal; type: cell-based; conditions: Human immunodeficiency virus 1, BAL, read-out: IC50 against Bal
N119 = test: HIV-1 resistant strain PBMC assay (p24 ELISA), N119 (nevaripine resistant); type: cell-based; conditions: Human immunodeficiency virus 1, PBMC, read-out: IC50 against N119
1617-1 = test: HIV-1 resistant strain PBMC assay (p24 ELISA), 1617-1 (AZT resistant); type: cell-based; conditions: Human immunodeficiency virus 1, PBMC, read-out: IC50 against 1617-1
Lav.04 = test: HIV-1 clinical strain PBMC assay (p24 ELISA), Lav.04; type: cell-based; conditions: Human immunodeficiency virus 1, PBMC, read-out: IC50 against Lav.04
89.6 = test: HIV-1 clinical strain PBMC assay (p24 ELISA), 89.6; type: cell-based; conditions: Human immunodeficiency virus 1, PBMC, read-out: IC50 against 89.6
A549 cells [4] = tested on: A549 cells
[5] = Repeated-dose toxicity study in mice; conditions: 25 and 50 mg/kg, daily i.p. for 28 days
[6] = tested on: broad HIV clinical strains; conditions: background; read-out: EC50 against broad HIV clinical strains; cited from earlier work
[7] = Human immunodeficiency virus 1, A549

Compound | EC50 (HIV; [7]) [nM] | CC50 (in vitro; CC50 (nM)) [nM] | IC50 (SF162) [nM] | CC50 [3] [nM] | IC50 (Bal) [nM] | IC50 (N119) [nM] | IC50 (1617-1) [nM] | IC50 (Lav.04) [nM] | IC50 (89.6) [nM] | anti-HIV activity in terms of SI values (HIV) | other results
COc1cc2c(OC3O[C@H](C)[C@@H](O)[C@H](OC(=O)CC#N)[C@H]3O)c3c(c(-c4ccc5c(c4)OCO5)c2cc1OC)C(=O)OC3 (stereo partly drawn) [Compound 31j, 3″-O-cyanoacetyl-7-O-β-D-patentiflorin A] | 0.91 | 6.68 |  |  |  |  |  |  |  |  | EC50 (EBOV (Ebola virus)): 0.84 nM; inhibition at 0.0125 µg/mL (EBOV (Ebola virus); A549, 12.5 ng/mL, read-out: % Inhibition against EBOV): 93.9%; inhibition at 0.05 µg/mL (EBOV (Ebola virus); A549, 50 ng/mL, read-out: % Inhibition against EBOV): 96.6%; inhibition at 0.0125 µg/mL ([1]; A549, 12.5 ng/mL, read-out: % Inhibition against VSV): 98.4%; inhibition at 0.05 µg/mL ([1]; A549, 50 ng/mL, read-out: % Inhibition against VSV): 99.9%; EC50 [1]: 0.91 nM; EC50 (SARS-CoV-2): 10.3 nM; CC50 (in vitro; CC50 against the host cell line A549): 6.68 nM; % Inhibition against H5N1 virus (H5N1 virus; 50 ng/mL): 98.2%; inhibition at 0.0125 µg/mL (H5N1 virus; Influenza A virus, H5N1, A549, 12.5 ng/mL, read-out: % Inhibition against H5N1 virus): 97.5%; inhibition at 0.05 µg/mL (H5N1 virus; Influenza A virus, H5N1, A549, 50 ng/mL, read-out: % Inhibition against H5N1 virus): 87.6%; inhibition at 0.25 µg/mL (H5N1 virus; Influenza A virus, H5N1, A549, 250 ng/mL, read-out: % Inhibition against H5N1 virus): 97.9%; EC50 (H5N1 virus; Influenza A virus): 0.84 nM; inhibition at 0.0125 µg/mL (A549 cells [2]): 77%; inhibition at 0.05 µg/mL (A549 cells [2]): 93.8%
C#Cc1c2c(c(-c3ccc4c(c3)OCO4)c3cc(OC)c(OC)cc13)C(=O)OC2 [Compound 21] | 17.8 | 207 | 23.9 | 25600 | 26.5 | 42.1 | 39.3 | 30.1 | 28.7 |  | 
2″-Acetyl-7-O-β-D-patentiflorin A [Compound 27bc] |  |  |  |  |  |  |  |  |  |  | CC50 (A549 cells [4]): 1370 nM; EC50 (HIV; read-out: EC50): 0.93 nM
CCOC(=O)COc1c2c(c(-c3ccc4c(c3)OCO4)c3cc(OC)c(OC)cc13)C(=O)OC2 [Compound 12b] | 207 | > 26800 | 340 | > 100000 | 458 | 638 | 537 | 312 | 376 |  | 
COc1cc2c(OC3OC[C@@H](OC(C)=O)[C@H](OC(C)=O)[C@H]3OC(C)=O)c3c(c(-c4ccc5c(c4)OCO5)c2cc1OC)C(=O)OC3 (stereo partly drawn) [Compound 25a, Peracetylated 7β-D-xylosyloxydiphyllin] | 7 | 3080 |  |  |  |  |  |  |  | much more improved anti-HIV activity | excised organs at the end of the experiment [5]: appeared as normal; toxic symptoms (weight loss, skin damage, food and water intake impairment and postual abnormality) and mortality [5]: no toxic symptoms
COc1cc2c(B3OC(C)(C)C(C)(C)O3)c3c(c(-c4ccc5c(c4)OCO5)c2cc1OC)C(=O)OC3 [Compound 19a] | 77.2 | 10500 | 154 | > 100000 | 188 | 185 | 152 | 138 | 143 | much more improved anti-HIV activity | 
COc1cc2c(OCC#N)c3c(c(-c4ccc5c(c4)OCO5)c2cc1OC)C(=O)OC3 [Compound 17a] | 72 | 45200 | 122 | > 100000 | 168 | 203 | 174 | 151 | 134 | much more improved anti-HIV activity | excised organs at the end of the experiment [5]: appeared as normal; toxic symptoms (weight loss, skin damage, food and water intake impairment and postual abnormality) and mortality [5]: no toxic symptoms
Cc1cn([C@H]2C[C@H](N=[N+]=[N-])[C@@H](CO)O2)c(=O)[nH]c1=O [AZT, zidovudine, reference compound] | 2.6 |  |  |  |  |  |  |  |  |  | EC50 [6]: 77 to 95 nM; EC50 (EBOV (Ebola virus)): 3.8 nM; inhibition at 0.02 µg/mL (EBOV (Ebola virus); A549, 20 ng/mL, read-out: % Inhibition against EBOV): 93.6%; inhibition at 0.02 µg/mL ([1]; A549, 20 ng/mL, read-out: % Inhibition against VSV): 99.4%; EC50 [1]: 7.06 nM; % Inhibition against H5N1 virus (H5N1 virus; 20 ng/mL): 92.7%; inhibition at 0.02 µg/mL (H5N1 virus; Influenza A virus, H5N1, A549, 20 ng/mL, read-out: % Inhibition against H5N1 virus): 96.5%; EC50 (H5N1 virus; Influenza A virus): 3.48 nM; inhibition at 0.02 µg/mL (A549 cells [2]): 1.1%
